One data set concerns the target T1, Tet(56-2) (Legionella clemsonensis, UniProt A0A222NYA8).
T1 construct: gene clem_00015
The data set is described as follows: biochemical.

In a further data set the target is T2, Tet(56-3) (Legionella massiliensis, UniProt A0A078L5T0).
T2 construct: gene BN59_03621
The data set is described as follows: biochemical.

Another data set relates to Tet(X7). The class given is biochemical, uncultured bacterium. Particulars: […] NADPH, […] MgCl2, 100 mM TAPS pH 8.5, 0.4 µM enzyme; read-out: KM (apparent).
The subject of another data set is Tet(56-4). To be noted: read-out: KM (apparent); […] NADPH, […] MgCl2, 100 mM TAPS pH 8.5, 0.4 µM enzyme.
The subject of another data set is Tet(56-5). To be noted: read-out: KM (apparent).
The next data set relates to Tet(56-7). Particulars: read-out: KM (apparent).
Another data set concerns Tet(56-6). Particulars: read-out: KM (apparent); […] NADPH, […] MgCl2, 100 mM TAPS pH 8.5, 0.4 µM enzyme.
Another data set relates to Tet(X13.2). Particulars: read-out: KM (apparent); […] NADPH, […] MgCl2, 100 mM TAPS pH 8.5, 0.4 µM enzyme.
Another data set relates to Tet(58). To be noted: read-out: KM (apparent); […] NADPH, […] MgCl2, 100 mM TAPS pH 8.5, 0.4 µM enzyme.
The test system of the next data set is E. coli + pZE24 Tet50_WT. The data set is described as follows: microbe, parasite or virus in culture. To be noted: Escherichia coli, 20 h. Here is the method:
(§1) For high expression from the Plac/ara-1 promoter, 1 mM IPTG fully relieves repression by LacI[93]. Inoculated panels were incubated at 37 °C for 20 h with shaking, then scored by eye and using a plate reader.

Another data set relates to E. coli + pZE24 TetX7_WT. The data set is described as follows: microbe, parasite or virus in culture. To be noted: Escherichia coli, 20 h. How it is done:
as §1

Data set [1] has as its system C[C@H]1c2cccc(O)c2C(=O)C2=C(O)[C@]3(O)C(=O)C(C(N)=O)=C(O)[C@@H](N(C)C)[C@@H]3[C@@H](O)[C@@H]21. The data set is described as follows: purified protein. Particulars: pH 8.5.

≈ marks a conversion by molar mass, not a printed value.

T1 sequence (A0A222NYA8 1-387 limits assumed): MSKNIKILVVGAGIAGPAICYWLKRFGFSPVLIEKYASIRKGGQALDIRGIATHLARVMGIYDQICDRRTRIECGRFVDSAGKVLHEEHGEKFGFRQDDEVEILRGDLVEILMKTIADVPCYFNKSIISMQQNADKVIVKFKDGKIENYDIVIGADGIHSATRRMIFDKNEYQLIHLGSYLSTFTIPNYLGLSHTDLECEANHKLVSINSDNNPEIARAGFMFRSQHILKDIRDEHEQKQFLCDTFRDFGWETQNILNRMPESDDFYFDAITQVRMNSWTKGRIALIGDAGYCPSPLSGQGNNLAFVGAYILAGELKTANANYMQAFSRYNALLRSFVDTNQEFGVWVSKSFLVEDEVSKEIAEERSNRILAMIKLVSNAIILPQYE
T2 sequence (A0A078L5T0 1-387 limits assumed): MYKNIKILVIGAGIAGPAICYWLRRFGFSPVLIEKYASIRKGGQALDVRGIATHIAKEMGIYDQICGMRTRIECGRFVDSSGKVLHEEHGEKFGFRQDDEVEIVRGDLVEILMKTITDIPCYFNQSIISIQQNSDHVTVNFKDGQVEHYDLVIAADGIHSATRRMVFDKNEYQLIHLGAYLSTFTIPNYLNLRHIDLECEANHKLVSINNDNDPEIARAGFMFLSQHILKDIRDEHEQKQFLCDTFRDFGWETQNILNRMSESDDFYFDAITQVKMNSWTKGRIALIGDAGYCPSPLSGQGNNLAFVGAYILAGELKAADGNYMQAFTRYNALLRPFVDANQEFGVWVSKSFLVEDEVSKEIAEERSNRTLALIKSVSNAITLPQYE

As usually defined, the IC50 is the midpoint of a concentration-inhibition curve. High values mean weaker potency, low ones greater potency. Take `Cc1c2c(c(O)c3c(O)cccc13)C(=O)[C@]1(O)C(=O)C(C(N)=O)=C(O)[C@@H](N(C)C)[C@@H]1C2` [ATC, anhydrotetracycline]: the IC50 was 6.4 ± 0.9 µM at Tet(56-2) and 30 ± 6 µM at Tet(56-3).
By Km is commonly meant the substrate concentration at which the rate is half of its maximum. `CN(C)[C@@H]1C(=O)C(C(N)=O)=C(O)[C@@]2(O)C(=O)C3=C(O)c4c(O)cccc4[C@@](C)(O)[C@H]3C[C@@H]12` [TET, tetracycline]: the Michaelis constant (Km) in the data set with Tet(X7) turned out to be 2.97 ± 0.68 µM; in the data set with Tet(56-4), 1.18 ± 0.562 µM; in the data set with Tet(56-5), 0.508 ± 0.181 µM; in the data set on Tet(56-7), 2.6 ± 0.301 µM; in the data set with Tet(56-6) it was 0.441 ± 0.218 µM; with Tet(X13.2), 23.4 ± 9.62 µM. Moreover, the Km in the data set with Tet(58) was found to be 0.123 ± 0.067 µM. Besides, the MIC with E. coli + pZE24 Tet50_WT and in the data set with E. coli + pZE24 TetX7_WT was 32 µg/mL (≈ 72 µM) in each case.
For the compound `C[C@H]1c2cccc(O)c2C(=O)C2=C(O)[C@]3(O)C(=O)C(C(N)=O)=C(O)[C@@H](N(C)C)[C@@H]3[C@@H](O)[C@@H]21` [DOX, doxycycline], the Michaelis constant (Km) with Tet(X7) worked out at 5.62 ± 0.629 µM. Besides, the results for the MIC in the data set with E. coli + pZE24 Tet50_WT and in the data set with E. coli + pZE24 TetX7_WT were 2 µg/mL (≈ 4.5 µM) and 16 µg/mL (≈ 36 µM), respectively.
With `CN(C)c1cc(NC(=O)CNC(C)(C)C)c(O)c2c1C[C@H]1C[C@H]3[C@H](N(C)C)C(O)=C(C(N)=O)C(=O)[C@@]3(O)C(O)=C1C2=O` [tigecycline], the MIC was found to be 0.5 µg/mL (≈ 0.854 µM) with E. coli + pZE24 Tet50_WT and 2 µg/mL (≈ 3.41 µM) in the data set on E. coli + pZE24 TetX7_WT.
Consider Tet(56-2) (Legionella clemsonensis), for which the Michaelis constant (Km) in data set [1] is on record as 150 ± 42 µM.
Still for that read-out and setting: the figure for Tet(56-3) (Legionella massiliensis) is 14.9 ± 1.4 µM.

The record behind these values is publication PMC10944477 (Communications Biology, 2024).
